Reference: ChEMBL document CHEMBL1151143, “Repin, a sesquiterpene lactone from Acroptilon repens possessing exceptional biological activity” (1990)
Active and inactive are the calls of the source. The calls are words filed in the database; no cut-off is given here.

Tests used:
[1] = test system: Neuron; assay: Inhibition of NGF-stimulated extension of neural processes in chick embryo neurons at 300 nM; type: functional, cell-based; conditions: Gallus gallus
[2] = test system: Neuron; assay: Inhibition of NGF-stimulated extension of neural processes in chick embryo neurons at 80 nM; type: functional; conditions: Gallus gallus

Structure (SMILES)	Activity [1]	inhibition at 0.08 µM [2] [%]
C=C1C(=O)O[C@H]2[C@H]1[C@@H](OC(=O)[C@@]1(C)CO1)CC(=C)[C@@H]1C[C@H](O)[C@]3(CO3)[C@H]21	Active	
C=C1C(=O)O[C@H]2[C@H]1[C@@H](OC(=O)[C@]1(C)CO1)CC(=C)[C@@H]1C[C@H](O)[C@]3(CO3)[C@H]21 [REPIN]		50
